Measured values from US9957276B2, “CDK inhibitors” (G1 THERAPEUTICS, INC., priority 2010, dated 2018).
pIC50: −log10 of the molar value.

Molecular target: CDK4/CyclinD (Homo sapiens (Human), UniProt P11802)
Assay: CDK4/CyclinD kinase enzymatic assay (Caliper LabChip)
Type: biochemical
Details: compounds as HCl salts, 12-point dose response, at the Km for ATP, three hours
Method: (§1) Kinase enzymatic reactions were performed in 384-well microplates using a 12-channel Caliper LabChip instrument as a detection device. […] As substrate and product are separated, two peaks of fluorescence are observed. Change in the relative fluorescence intensity of the substrate and product peaks is the parameter measured, reflecting enzyme activity. In the presence of an inhibitor, the ratio between product and substrate is altered. The signal of the product decreases, while the signal of the substrate increases.
(§2) Potential inhibitor compounds (as HCl salts) were tested using 12-point dose response curves in […] at the Km for ATP. The IC50 of each compound was determined using GraphPad Prism.

CDK4/CyclinD, sequence (P11802 whole entry, species assumed): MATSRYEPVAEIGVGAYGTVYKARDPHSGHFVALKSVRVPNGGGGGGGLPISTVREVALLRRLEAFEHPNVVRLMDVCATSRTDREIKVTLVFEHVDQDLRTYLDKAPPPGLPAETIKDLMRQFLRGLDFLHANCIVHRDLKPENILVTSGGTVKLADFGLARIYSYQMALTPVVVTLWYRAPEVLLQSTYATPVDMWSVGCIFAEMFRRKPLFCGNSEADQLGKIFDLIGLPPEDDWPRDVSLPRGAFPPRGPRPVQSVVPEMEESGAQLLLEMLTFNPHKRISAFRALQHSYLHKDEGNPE
CDK4/CyclinD, sequence (P24385 whole entry partner, species assumed): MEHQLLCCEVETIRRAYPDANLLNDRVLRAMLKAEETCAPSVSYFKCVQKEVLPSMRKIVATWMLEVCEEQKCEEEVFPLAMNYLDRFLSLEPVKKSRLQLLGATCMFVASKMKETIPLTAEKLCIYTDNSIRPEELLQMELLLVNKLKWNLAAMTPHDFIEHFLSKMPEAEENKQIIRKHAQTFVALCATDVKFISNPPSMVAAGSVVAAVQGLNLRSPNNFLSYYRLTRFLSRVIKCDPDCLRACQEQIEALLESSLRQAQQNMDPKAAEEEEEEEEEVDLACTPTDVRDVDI

Row | SMILES | pIC50
1 | CN1CCN(c2ccc(Nc3ncc4cc5n(c4n3)CCNC5=O)nc2)CC1 [Compound 1] | 6.34

Same assay, conditions: from the IC50 values

Row | SMILES | selectivity for Cdk4/CycD1 over Cdk2/CycE [fold]
2 | CN1CCN(c2ccc(Nc3ncc4cc5n(c4n3)CCNC5=O)nc2)CC1 [Compound 1] | 200
3 | O=C1NCCn2c1cc1cnc(Nc3ccc(N4CCNCC4)cn3)nc12 [Compound 3] | 100

Molecular target: CDK2/cyclinE (Homo sapiens (Human), UniProt P24941)
Assay: CDK2/cyclinE kinase enzymatic assay (Caliper LabChip)
Type: biochemical
Details: Table 2, class symbols; read-out: CDK2/CycE IC50
Method: as §1, §2

Row | SMILES | pIC50
4 | CN1CCN(c2ccc(Nc3ncc4cc5n(c4n3)CCNC5=O)nc2)CC1 [Compound 1] | < 4.00
5 | CN1CCn2c(cc3cnc(Nc4ccc(N5CCNCC5)cn4)nc32)C1=O [Compound 5] | < 4.00
6 | CC(C)C1CNC(=O)c2cc3cnc(Nc4ccc(N5CCN(C(=O)OC(C)(C)C)CC5)cn4)nc3n21 (stereo not shown) [Compound 6] | < 4.00
7 | CC(C)C1CNC(=O)c2cc3cnc(Nc4ccc(N5CCN(C)CC5)cn4)nc3n21 (stereo not shown) [Compound 7] | < 4.00
8 | CC(C)C[C@H]1CN(C)C(=O)c2cc3cnc(Nc4ccc(N5CCN(C)CC5)cn4)nc3n21 [Compound 14] | < 4.00
9 | CC(C)C[C@H]1CN(C)C(=O)c2cc3cnc(Nc4ccc(N5CCNCC5)cn4)nc3n21 [Compound 15] | < 4.00
10 | CCC(C)[C@H]1CN(C)C(=O)c2cc3cnc(Nc4ccc(N5CCNCC5)cn4)nc3n21 (stereo partly shown) [Compound 19] | < 4.00
11 | CC(C)CC1CN(C)C(=O)c2cc3cnc(Nc4ccc(N5CCNCC5)cn4)nc3n21 (stereo not shown) [Compound 47] | < 4.00
12 | O=C1N[C@H]2CCC[C@@H]2n2c1cc1cnc(Nc3ccc(N4CCNCC4)cn3)nc12 [Compound 49] | 4.00 to 6.00

Continued, values first:

Row | pIC50 | SMILES
13 | < 4.00 | CC(C)[C@H]1CN(C)C(=O)c2cc3cnc(Nc4ccc(N5CCNCC5)cn4)nc3n21 [Compound 11]
14 | < 4.00 | CCC(C)[C@H]1CN(C)C(=O)c2cc3cnc(Nc4ccc(N5CCN(C)CC5)cn4)nc3n21 (stereo partly shown) [Compound 18]
15 | < 4.00 | CN1CC2(CCCC2)n2c(cc3cnc(Nc4ccc(N5CCNCC5)cn4)nc32)C1=O [Compound 31]
16 | < 4.00 | CN1CCN(c2ccc(Nc3ncc4cc5n(c4n3)[C@H]3CCC[C@@H]3NC5=O)nc2)CC1 [Compound 48]
